Assay results reported in patent US10323000B2, “Indole derivatives and their use in neurodegenerative diseases” (priority 2014, dated 2019).
Where two headings read alike, the source gives them in different places.

Legend:
human P2X7 receptor = human P2X7 receptor (Homo sapiens (Human), UniProt Q99572); experiment: Pore permeation assay (YO PRO dye uptake); type: cell-based
[1] = target: P2X7 (IL-1β release from THP-1 cells) (Homo sapiens (Human), UniProt Q99572); experiment: IL-1β release assay; type: cell-based
Summary of the method: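 THP-1 cells were differentiated with PMA 0.5 μM and primed 4 h with LPS 10 ng/ml. They were then pre-incubated 20 min with compound at 37° C and stimulated 30 min with BzATP 0.8 mM. Mature IL-1β released into the supernatant was quantified by sandwich ELISA.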

[2] = THP-1 cells, LPS primed, 0.8 mM BzATP, mature IL-1β by sandwich ELISA, read-out: hTHP-1/IL-ib IC50
[3] = HEK293 transfected with human P2X7, BzATP 10 uM, YO PRO dye uptake, read-out: hP2X7 IC50

P2X7 (IL-1β release from THP-1 cells), sequence (Q99572 whole entry): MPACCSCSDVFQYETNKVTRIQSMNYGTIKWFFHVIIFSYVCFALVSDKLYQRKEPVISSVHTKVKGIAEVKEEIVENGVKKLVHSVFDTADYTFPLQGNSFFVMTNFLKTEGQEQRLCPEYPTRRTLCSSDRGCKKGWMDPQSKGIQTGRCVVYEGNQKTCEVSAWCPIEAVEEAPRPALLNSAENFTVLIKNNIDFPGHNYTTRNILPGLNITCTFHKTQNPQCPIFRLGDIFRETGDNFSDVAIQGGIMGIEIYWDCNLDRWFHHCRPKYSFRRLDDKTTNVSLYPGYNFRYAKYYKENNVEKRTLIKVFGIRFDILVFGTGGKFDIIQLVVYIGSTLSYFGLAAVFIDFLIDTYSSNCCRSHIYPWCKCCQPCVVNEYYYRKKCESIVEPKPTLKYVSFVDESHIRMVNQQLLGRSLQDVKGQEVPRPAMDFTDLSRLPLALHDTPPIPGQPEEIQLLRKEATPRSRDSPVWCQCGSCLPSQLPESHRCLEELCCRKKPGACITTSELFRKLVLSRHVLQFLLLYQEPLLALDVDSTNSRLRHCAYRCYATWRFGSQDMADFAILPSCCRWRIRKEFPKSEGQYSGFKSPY
human P2X7 receptor, sequence (Q99572 whole entry): as above

Structure (SMILES)	IC50 (human P2X7 receptor)	IC50 [1]	IC50 [1, 2]	IC50 (human P2X7 receptor; [3])
C[C@@H]1CCC[C@](O)(CNC(=O)c2cn(CC3CCCO3)c3cccc(Cl)c23)C1 (stereo partly drawn) [Compound 143, 4-chloro-N-(((1R,3R)-1-hydroxy-3-methylcyclohexyl)methyl)-1-((tetrahydrofuran-2-yl)methyl)-1H-indole-3-carboxamide]	10 to 100 nM	101 to 500 nM	–	–
O=C(NC[C@@]1(O)CCCC(F)(F)C1)c1cn(C2COC2)c2cccc(Cl)c12 [Compound 84, (R)-4-chloro-N-((3,3-difluoro-1-hydroxycyclohexyl)methyl)-1-(oxetan-3-yl)-1H-indole-3-carboxamide]	101 to 500 nM	101 to 500 nM	–	–
COCCn1cc(C(=O)NCC(C)c2ccccc2Cl)c2c(Cl)cccc21 (centres unmarked) [Compound 33, 4-chloro-N-(2-(2-chlorophenyl)propyl)-1-(2-methoxyethyl)-1H-indole-3-carboxamide]	101 to 500 nM	–	> 1000 nM	–
O=C(NCC1CCC(F)(F)CC1)c1cn(CC2CCCCN2)c2cccc(Cl)c12 (centres unmarked) [Compound 173, 4-chloro-N-((4,4-difluorocyclohexyl)methyl)-1-(piperidin-2-ylmethyl)-1H-indole-3-carboxamide]	–	–	< 10 nM	< 10 nM
C[C@@H]1CCC[C@](O)(CNC(=O)c2cn(C3CCOC3)c3cccc(Cl)c23)C1 (stereo partly drawn) [Compound 113, 4-chloro-N-(((1R,3R)-1-hydroxy-3-methylcyclohexyl)methyl)-1-(tetrahydrofuran-3-yl)-1H-indole-3-carboxamide]	10 to 100 nM	10 to 100 nM	–	–
O=C(NCC1CCCCC1)c1cn(C2COC2)c2cccc(Cl)c12 [Compound 48, 4-chloro-N-(cyclohexylmethyl)-1-(oxetan-3-yl)-1H-indole-3-carboxamide]	101 to 500 nM	101 to 500 nM	–	–
O=C(NCCOC1CCCC1)c1cn(C2COC2)c2cccc(Cl)c12 [Compound 72, 4-Chloro-1-oxetan-3-yl-1H-indole-3-carboxylic acid (2-cyclopentyloxy-ethyl)-amide]	500 to 999 nM	–	> 1000 nM	–
COCCn1cc(C(=O)NCCc2cccs2)c2c(Cl)cccc21 [Compound 30, 4-Chloro-1-(2-methoxy-ethyl)-1H-indole-3-carboxylic acid (2-thiophen-2-yl-ethyl)-amide]	10 to 100 nM	101 to 500 nM	–	–
O=C(NCC1CCC(F)(F)CC1)c1cn(CCOC2CC2)c2cccc(Cl)c12 [Compound 149, 4-chloro-1-(2-cyclopropoxyethyl)-N-((4,4-difluorocyclohexyl)methyl)-1H-indole-3-carboxamide]	10 to 100 nM	101 to 500 nM	–	–
CN1CC(n2cc(C(=O)NCC3(O)CCC(F)(F)CC3)c3c(Cl)cccc32)C1 [Compound 118, 4-chloro-N-((4,4-difluoro-1-hydroxycyclohexyl)methyl)-1-(1-methylazetidin-3-yl)-1H-indole-3-carboxamide]	500 to 999 nM	10 to 100 nM	–	–
O=C(NCC1CCC(F)(F)CC1)c1cn(CCOC(F)F)c2cccc(Cl)c12 [Compound 95, 4-chloro-N-((4,4-difluorocyclohexyl)methyl)-1-(2-(difluoromethoxy)ethyl)-1H-indole-3-carboxamide]	10 to 100 nM	101 to 500 nM	–	–
O=C(NCC1(O)CCC(F)(F)CC1)c1cn(C2COC2)c2cccc(Cl)c12 [Compound 92, 4-chloro-N-((4,4-difluoro-1-hydroxycyclohexyl)methyl)-1-(oxetan-3-yl)-1H-indole-3-carboxamide]	10 to 100 nM	101 to 500 nM	–	–
O=C(NCC1(O)CCCC(F)(F)C1)c1cn(C2COC2)c2cccc(Cl)c12 (racemic) [Compound 86, 4-chloro-N-((3,3-difluoro-1-hydroxycyclohexyl)methyl)-1-(oxetan-3-yl)-1H-indole-3-carboxamide]	10 to 100 nM	10 to 100 nM	–	–
O=C(NCC1(O)CCC(F)(F)CC1)c1cn(C2CCCO2)c2cccc(Cl)c12 (centres unmarked) [Compound 98, 4-chloro-N-((4,4-difluoro-1-hydroxycyclohexyl)methyl)-1-(tetrahydrofuran-2-yl)-1H-indole-3-carboxamide]	101 to 500 nM	101 to 500 nM	–	–
O=C(NCC1CCC(F)(F)CC1)c1cn(CC2CCCN2)c2cccc(Cl)c12 (centres unmarked) [Compound 158, 4-chloro-N-((4,4-difluorocyclohexyl)methyl)-1-(pyrrolidin-2-ylmethyl)-1H-indole-3-carboxamide]	–	–	< 10 nM	< 10 nM
COCCn1cc(C(=O)NCC2(c3ccc(C(F)(F)F)cc3)CCOCC2)c2c(Cl)cccc21 [Compound 38]	10 to 100 nM	101 to 500 nM	–	–
O=C(NCC1CCCC2(CC2)C1)c1cn(C2COC2)c2cccc(Cl)c12 (centres unmarked) [Compound 68, 4-chloro-1-(oxetan-3-yl)-N-(spiro[2.5]octan-5-ylmethyl)-1H-indole-3-carboxamide]	–	10 to 100 nM	–	< 10 nM

Structure (SMILES)	IC50 (human P2X7 receptor)	IC50 [1]	IC50 [1, 2]	IC50 (human P2X7 receptor; [3])
O=C(NCC1CCC(F)(F)CC1)c1cn(CC(F)(F)F)c2cccc(Cl)c12 [Compound 5, 4-chloro-N-((4,4-difluorocyclohexyl)methyl)-1-(2,2,2-trifluoroethyl)-1H-indole-3-carboxamide]	10 to 100 nM	101 to 500 nM	–	–
O=C(NC[C@@H]1CCCC[C@H]1O)c1cn(C2COC2)c2cccc(Cl)c12 [Compound 87]	101 to 500 nM	–	> 1000 nM	–
C[C@@H]1CCC[C@](O)(CNC(=O)c2cn(CC(F)(F)F)c3cccc(Cl)c23)C1 [Compound 3, 4-chloro-N-(((1R,3R)-1-hydroxy-3-methylcyclo-hexyl)methyl)-1-(2,2,2-trifluoroethyl)-1H-indole-3-carboxamide]	10 to 100 nM	101 to 500 nM	–	–
O=C(NCC1CCC(F)(F)CC1)c1cn(CC2COCCN2)c2cccc(Cl)c12 (centres unmarked) [Compound 164, 4-chloro-N-((4,4-difluorocyclohexyl)methyl)-1-(morpholin-3-ylmethyl)-1H-indole-3-carboxamide]	101 to 500 nM	10 to 100 nM	–	–
O=C(NCC1(O)CCC(F)(F)CC1)c1cn(CC2CCOC2)c2cccc(Cl)c12 (centres unmarked) [Compound 147, 4-chloro-N-((4,4-difluoro-1-hydroxycyclohexyl)methyl)-1-((tetrahydrofuran-3-yl)methyl)-1H-indole-3-carboxamide]	10 to 100 nM	10 to 100 nM	–	–
CC(C)N1CC[C@H]1Cn1cc(C(=O)NCC2CCC(F)(F)CC2)c2c(Cl)cccc21 [Compound 191, (S)-4-chloro-N-((4,4-difluorocyclohexyl)methyl)-1-((1-isopropylazetidin-2-yl)methyl)-1H-indole-3-carboxamide]	101 to 500 nM	–	> 1000 nM	–
O=C(NCC1C[C@@H]2CC[C@H]1C2)c1cn(C2CCOC2)c2cccc(Cl)c12 (stereo partly drawn) [Compound 105, 4-Chloro-1-(tetrahydro-furan-3-yl)-1H-indole-3-carboxylic acid ((1S,4R)-1-bicyclo[2.2.1]hept-2-ylmethyl)-amide]	10 to 100 nM	101 to 500 nM	–	–
O=C(NCC1(O)CCC(F)(F)CC1)c1cn(CCC(F)F)c2cccc(Cl)c12 [Compound 10, 4-Chloro-1-(3,3-difluoro-propyl)-1H-indole-3-carboxylic acid (4,4-difluoro-1-hydroxy-cyclohexylmethyl)-amide]	10 to 100 nM	101 to 500 nM	–	–
O=C(NCC1CCCOC1)c1cn(C2COC2)c2cccc(Cl)c12 (centres unmarked) [Compound 74, 4,4-Chloro-1-oxetan-3-yl-1H-indole-3-carboxylic acid (tetrahydro-pyran-3-ylmethyl)-amide]	–	–	> 1000 nM	> 1000 nM
CN1CC[C@H]1Cn1cc(C(=O)NCC2CCC(F)(F)CC2)c2c(Cl)cccc21 [Compound 151, (S)-4-chloro-N-((4,4-difluorocyclohexyl)methyl)-1-((1-methylazetidin-2-yl)methyl)-1H-indole-3-carboxamide]	10 to 100 nM	10 to 100 nM	–	–
O=C(NCC1CCC(F)(F)CC1)c1cn(CC2COCCO2)c2cccc(Cl)c12 (centres unmarked) [Compound 150, 1-((1,4-dioxan-2-yl)methyl)-4-chloro-N-((4,4-difluorocyclohexyl)methyl)-1H-indole-3-carboxamide]	10 to 100 nM	10 to 100 nM	–	–
COCCn1cc(C(=O)NCC2CCC(F)(F)CC2)c2c(Cl)cccc21 [Compound 41, 4-chloro-N-((4,4-difluorocyclohexyl)methyl)-1-(2-methoxyethyl)-1H-indole-3-carboxamide]	10 to 100 nM	–	< 10 nM	–
CC1CC(O)(CNC(=O)c2cn(C3CCOC3)c3cccc(Cl)c23)CCC1(F)F (centres unmarked) [Compound 106, 4-Chloro-1-(tetrahydro-furan-3-yl)-1H-indole-3-carboxylic acid (4,4-difluoro-1-hydroxy-3-methyl-cyclohexylmethyl)-amide]	500 to 999 nM	101 to 500 nM	–	–
C[C@H]1CCC[C@@](O)(CNC(=O)c2cn(CCC(F)F)c3cccc(Cl)c23)C1 [Compound 7]	–	10 to 100 nM	–	< 10 nM
O=C(NCC1CCC(F)(F)CC1)c1cn(C[C@@H]2CCCO2)c2cccc(Cl)c12 [Compound 132, (S)-4-chloro-N-((4,4-difluorocyclohexyl)methyl)-1-((tetrahydrofuran-2-yl)methyl)-1H-indole-3-carboxamide]	10 to 100 nM	10 to 100 nM	–	–
O=C(NCC1(O)CCC(F)(F)CC1)c1cn(CC2CCCCO2)c2cccc(Cl)c12 (centres unmarked) [Compound 166, 4-chloro-N-((4,4-difluoro-1-hydroxycyclohexyl)methyl)-1-((tetrahydro-2H-pyran-2-yl)methyl)-1H-indole-3-carboxamide]	10 to 100 nM	10 to 100 nM	–	–
CN(C)C(=O)Cn1cc(C(=O)NCC2(O)CCC(F)(F)CC2)c2c(Cl)cccc21 [Compound 205, 4-Chloro-1-dimethylcarbamoylmethyl-1H-indole-3-carboxylic acid (4,4-difluoro-1-hydroxy-cyclohexylmethyl)-amide]	–	10 to 100 nM	–	< 10 nM
